Values joined by “and” are separate entries in the source; they are usually repeats but may differ in a detail not shown here. Equal values may be shown once.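 A five-concentration, 48-hour dose response in 96-well plates underlies each endpoint, interpolated linearly between surrounding concentrations. GI50 is the concentration that inhibits growth by half. TGI is the concentration that stops growth completely.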
Columns and labels:
Assay in all cases: NCI anticancer screen, dose series, 48 h
NCI-H226 lung = system: NCI-H226 lung
NCI-H460 lung = system: NCI-H460 lung
U251 CNS = system: U251 CNS
UACC-62 melanoma = system: UACC-62 melanoma
SK-OV-3 ovarian = system: SK-OV-3 ovarian
NCI-H522 lung = system: NCI-H522 lung
M14 melanoma = system: M14 melanoma
OVCAR-3 ovarian = system: OVCAR-3 ovarian
OVCAR-8 ovarian = system: OVCAR-8 ovarian
HOP-62 NSCLC = system: HOP-62 NSCLC

Structure (SMILES) | GI50 (NCI-H226 lung) [µM] | TGI (NCI-H226 lung) | GI50 (NCI-H460 lung) [µM] | TGI (NCI-H460 lung) | GI50 (U251 CNS) [µM] | TGI (U251 CNS) | GI50 (UACC-62 melanoma) [µM] | TGI (UACC-62 melanoma) | GI50 (SK-OV-3 ovarian) [µM] | TGI (SK-OV-3 ovarian) | GI50 (NCI-H522 lung) [µM] | TGI (NCI-H522 lung) | GI50 (M14 melanoma) [µM] | TGI (M14 melanoma) | GI50 (OVCAR-3 ovarian) [µM] | TGI (OVCAR-3 ovarian) | GI50 (OVCAR-8 ovarian) [µM] | TGI (OVCAR-8 ovarian) | GI50 (HOP-62 NSCLC) [µM] | TGI (HOP-62 NSCLC) [µM]
Cn1ccc(=Nc2ccc(NC(=O)c3ccc(N=c4ccn(C)c5ccc([N+](=O)[O-])cc45)cc3)cc2)cc1 | 74.3 | > 100 µM | 22.6 | > 100 µM | 0.437 | > 100 µM | 17.8 | > 100 µM | > 100 | > 100 µM | 6.88 | > 100 µM | > 100 | > 100 µM | 15.2 | 78.7 µM | > 100 | > 100 µM | 8.25 | > 100
Cc1ccc(S(=O)(=O)N2CCC3(C(/C=C/c4ccccc4)=Nc4ccccc43)C2c2ccccc2)cc1 (centres undefined) |  | > 100 µM |  | > 100 µM |  | > 100 µM |  | > 100 µM |  | > 100 µM |  | > 100 µM |  | > 100 µM |  | > 100 µM |  | > 100 µM |  | > 100
O=C1/C(=C/c2ccccc2)SC(=Nc2ccccc2)N1Nc1ccccc1 | 10.9 | 30.5 µM | 15.9 | 57.3 µM | 12.9 | > 100 µM | 10.3 | 39.4 µM | 24.4 | > 100 µM | 15.5 | 84.8 µM | 12.3 | 42.8 µM | 10.2 | 91.2 µM | 27.3 | > 100 µM | 23.4 | > 100
C#CCN1CCN(C(=S)N/N=C(\C)c2ccccn2)CC1 |  | 4.66 µM |  | 4.17 µM and 2.75 µM | 0.0126 | 4.45 µM |  |  | 1.57 | 2.91 µM and 5.09 µM | < 0.0292 | 6.52 µM and 2.27 µM | 0.0781 | 6.03 µM and 3.32 µM | 0.00448 | 1.4 µM and 1.2 µM | 0.0131 | 3.5 µM and 3.46 µM | 0.124 | 5.89
CCOC(=O)/C=C1\SC(=Nc2ccc(C#N)cc2)N(CCN2C(=O)/C(=C/C(=O)OCC)SC2=Nc2ccc(C#N)cc2)C1=O | 3.53 | 14.3 µM | 1.81 | 7.35 µM | 0.554 | 1.94 µM | 3.25 | 17.9 µM | 15.3 | 41.7 µM | 6.56 | 24.3 µM | 3.3 | 18.2 µM | 0.795 | 3.27 µM | 3.65 | > 63.8 µM | 2.55 | 8.39
NC(=O)c1csc(C2C=CC(CO)O2)n1 (centres undefined) |  | > 100 µM |  | > 100 µM |  | > 100 µM |  | > 100 µM |  | > 100 µM |  | > 100 µM |  | > 100 µM |  | > 10 µM |  | > 100 µM |  | > 100
N#C/C(=C/C=C(\Cl)c1ccc(Cl)cc1)C(N)=O | 4.96 | 13.9 µM | 4.65 | > 100 µM | 2.29 | 5.32 µM | 5.87 | 20.6 µM | 14.9 | 42.3 µM | > 22.7 | > 62.2 µM | 1.94 | 9.84 µM | 0.269 | 1.76 µM | 6.39 | 12.6 µM | 2.36 | 4.33
C/C=C(\C)C(=O)O[C@@H]1C(O)[C@H]2OC(COC(=O)CCC(=O)CCCCCC[C@H](CCCCC)O[C@@H]3OC(C)[C@H](OC(C)=O)C(O)[C@H]3O2)[C@H]1OC(=O)/C=C/c1ccccc1 (some centres undefined) | 0.0643 | 7.38 µM | < 0.01 | > 60.9 µM | < 0.01 | 6.39 µM | 0.0176 | 1.01 µM | 0.0419 | 13.3 µM | 0.0265 | 2.29 µM | < 0.01 | 0.123 µM | 0.0284 | 13.7 µM | < 0.0341 | > 51.4 µM | < 0.0148 | 7.18
CC(=O)O[C@H]1[C@@H]2[C@@H]3[C@@H](C[C@H]1C)[C@@H](C)CO[C@@]1(C)CC/C=C(/C)C[C@@H]2O[C@@H]31 |  | > 100 µM |  | > 100 µM |  | > 100 µM |  | > 100 µM |  | > 100 µM |  | > 100 µM |  | > 100 µM |  | > 100 µM |  | > 100 µM |  | > 100
COC(=O)[C@]12CC[C@@H](C)[C@H](C)[C@@H]1C1=CC[C@@H]3[C@@]4(C)C(C=O)=C[C@@](C)(COC(C)=O)[C@@H]4[C@H](O)C[C@@]3(C)[C@]1(C)CC2 | 1.95 | 4.8 µM | 1.89 | 3.9 µM | 1.92 | 4.36 µM | 1.76 | 4.1 µM | 4.35 | 16.1 µM | 3.46 | 8.83 µM | 2.15 | 5.51 µM | 1.82 | 3.34 µM | 3.03 | 10.4 µM | 2.74 | 6.04
Cc1cc(Cc2cc(C)c(NC(=O)C(=O)C3C(=O)NC(=S)NC3=O)c(C(C)C)c2)cc(C(C)C)c1NC(=O)C(=O)C1C(=O)NC(=S)NC1=O |  | > 100 µM |  | > 100 µM |  | > 100 µM |  | > 100 µM |  | > 100 µM |  | > 100 µM |  | > 100 µM |  | > 100 µM |  | > 100 µM |  | > 100
CO[C@H]1[C@H](O)[C@H](O[C@H]2CC[C@@]3(C)[C@H](CC[C@@H]4[C@@H]3CC[C@]3(C)[C@@H](C5=CC(=O)OC5)CC[C@]43O)C2)O[C@@H](C)[C@@H]1O |  | 0.0192 µM and < 0.0129 µM |  | 0.00151 µM |  | 0.00385 µM and 0.0152 µM |  | 0.00312 µM and < 0.0104 µM |  | 0.00245 µM and 0.0106 µM |  | 0.000282 µM |  | 0.00302 µM and 0.0169 µM |  | 0.00116 µM |  | 0.00572 µM and 0.0113 µM |  | 
CC12O[C@H](c3ccccc3)[C@H](c3ccccc3)N1C(=O)C1(C(=O)OCc3ccccc3)CC12 (some centres undefined) |  | > 100 µM |  | > 100 µM |  |  |  | > 100 µM |  | > 100 µM |  | > 100 µM |  | > 100 µM |  | > 100 µM |  | > 100 µM |  | > 100
CCCCn1c2c(c3ccccc3c1=O)C(=O)c1ccccc1-2 |  | > 100 µM |  |  |  | > 100 µM |  | > 100 µM |  | > 100 µM |  | > 100 µM |  | > 100 µM |  | > 100 µM |  | > 100 µM |  | > 100
COc1cc2c3c(n(CCN)c(=O)c2cc1OC)-c1cc2c(cc1C3=O)OCO2 | 0.769 | 2.55 µM | < 0.01 | 3.24 µM | 0.367 |  | 0.134 | 1.51 µM | 2.57 | > 100 µM | 0.771 | 6.57 µM | < 0.0185 | 1.41 µM |  |  | 1.12 |  | 0.122 | 0.774

Reference: PubChem BioAssay (NCI)
